Experiment [1] has as its system Male ddY mice. Put plainly: Global Ischemia Activity (gasping time after decapitation). Type of experiment: in vivo. Particulars: Mus musculus; ip, 30 minutes before decapitation; vs saline control; read-out: Global Ischemia EDmin (Minimum effective dose). As to the method: Male ddY mice having a body weight of 22 to 30 g were used (i.e., 6 mice in one group). The sample compound prepared in the Synthesis Example 1 or 7 was intraperitoneally injected into the mice and the mice were decapitated 30 minutes after the injection. After decapitation, the gasping times were determined. The results were compared with a control group to which only the saline was injected.

The test system of experiment [2] is Male ddY mice. The experiment can be described thus: Hypobaric Hypoxia Activity (survival time at 180 mmHg). In kind it is in vivo. The following applies: Mus musculus; ip, 30 minutes before evacuation to 180 mmHg; vs physiological saline; read-out: Hypobaric Hypoxia EDmin (Minimum effective dose). As to the method: Male ddY mice having a body weight of 22 to 30 g were used (i.e., 7 to 10 mice in one group). The mice were […] sample compound prepared in the Synthesis Example 1 or 7 was intraperitoneally injected into the mice. The desiccator was evacuated 30 minutes after the injection and the time from the start of the evacuation to the termination of breathing by the mice was determined to be the survival time. If a mouse was still alive 15 minutes after exposure to the hypoxia, the survival time was assumed to be 15 minutes.

Experiment [3] has as its system Male ddY mice. Put plainly: Normobaric Hypoxia Activity (survival time in 96% N2 and 4% O2). Type of experiment: in vivo. The following applies: Mus musculus, ip, 30 minutes before, read-out: Normobaric Hypoxia EDmin (Minimum effective dose). As to the method:
Male ddY mice having a body weight of 22 to 30 g were used (i.e., 7 to 10 mice in one group). The sample compound prepared in the Synthesis Example 1 or 7 was intraperitoneally injected into the mice and, 30 minutes later, the mice were placed in a desiccator having a volume of about 1 liter and filled with a gas mixture of 96% N2 and 4% O2. The survival time up to the termination of breathing by the mice was determined. During the test, the N2 --O2 gas mixture was continuously supplied at a rate of 3 l/min. When the survival time was more than 15 minutes, the survival time was assumed to be 15 minutes. The results were compared with a control group, to which only a physiological saline was injected.

Experiment [4] has as its system Male mice. The experiment can be described thus: Hemicholinium No. 3 (HC-3) Induced Anoxia Activity (survival time). Type of experiment: in vivo. The following applies: Mus musculus; ip, 15 minutes before 5 mg/kg hemicholinium No. 3 into tail vein; read-out: HC-3 Induced Anoxia EDmin (Minimum effective dose). As to the method: Male mice having a body weight of 22 to 30 g were used (i.e., 7 to 10 mice in one group). The sample compound prepared in the Synthesis Example 1 or 7 was intraperitoneally injected into the mice and, 15 minutes later, 5 mg/kg of hemicholinium No. 3 was injected into the tail vein of the mice. The time from the injection of hemicholinium No. 3 to the termination of breathing by the mice was determined to be the survival time. The results were compared with that of a control group to which only a physiological saline was injected.

In experiment [5] the test system is rat brain homogenate. Put plainly: Antilipid Peroxidation Activity (A), rat brain homogenate, TBA reaction. Particulars: at 10^-4 M, 37° C., 30 minutes. Type of experiment: biochemical, Male Wister rats. As for the experimental part: (A) Male Wister rats having a body weight of 350 to 380 g were used. A rat was decapitated and the whole brain other than the cerebellum was homogenized in 10 times volume of ice cooled 50 mM buffered saline (PBS) having a pH of 7.4. The homogenized mixture was then centrifugally separated and the resultant supernatant frozen at a temperature of -30° C. The frozen specimen was melted in flowing water and was then diluted with 3 times volume PBS to prepare the diluted homogenate.
A 10 μl of a solution of the sample compound prepared in the Synthesis Example 1 or 7 was added to 1 ml of the diluted homogenate obtained above and the mixture was incubated at a temperature of 37° C. for 30 minutes. […]
As is the case of the test compound solution, 10 μl of the standard solution of tetramethoxypropane (TMP) was prepared and was added to the reaction mixture in amounts of 0 to 10 nmole/tube. […] Thereafter, the resultant layers were stabilized for 10 minutes at 2,000 rpm and the absorbance of the organic layer at 532 nm or the fluorescence intensity of the organic layer at 553 nm (excited at 515 nm) were determined. The lipid peroxide content was determined and represented a nmole number of malon dialdehyde (MDA) per mg of protein. The protein was determined by a Lawry method (i.e., Lawry et al., J. Biol. Chem., 193, 265 (1951)).

Experiment [6] relates to lipid peroxides in the blood serum. The experiment can be described thus: Antilipid Peroxidation Activity (B), lipid peroxides in blood serum of alloxan-injected mice. Type of experiment: in vivo, Male ddY mice. The following applies: at a dose of 10 mg/kg, ip, 24 hours after alloxan 85 mg/kg. As for the experimental part:
(B) Male ddY mice having a body weight of 24 to 27 g were used (i.e., 5 to 9 mice in one group). After 16 to 17 hours nestia, 85 mg/kg of alloxan was rapidly injected into the tail vein of the mice. After injecting the alloxan, the mice were subjected to free feeding and free water intaking and, 24 hours later, the sample compound was intraperitoneally injected into the mice. After an additional 24 hours, anesthesia was applied to the mice with ether and the blood of alvine aorta and cava was sampled. The amounts of the lipid peroxides in the blood serum were quantitatively measured according to a Yagi's method (i.e., K. Yagi, Biochem. Med., 15, 212, 1976).
The results were compared with that of a control group to which only a physiological saline was injected.

The subject of experiment [7] is Male ddY mice. Put plainly: Scopolamine Amnesia Activity (step-through passive avoidance learning). Particulars: Mus musculus; ip immediately after first session; scopolamine 0.5 mg/kg hypodermically; retention test 24 hours later; read-out: Scopolamine Amnesia EDmin (Minimum effective dose). In kind it is in vivo. The text has this: Ten male ddY mice having a body weight of 22 to 30 g were used as one group. A slit was located between a light room and a dark room. In the dark room, an arrangement was made whereby an electric shock was given to the feet by an electric current. Thus, the behavior of the mice in relation to step-through to the dark room was studied. The mice were amnesically treated with an administration of scopolamine with or without the injection of the sample compound 1 or 7 and the time taken to avoid step-through by the mice to the dark room was determined by the so-called step-through passive avoidance learning method. The electric current used was 0.6 mA. The scopolamine was hypodermically injected in an amount of 0.5 mg/kg at 20 minutes prior to the first session and the sample compound was intraperitoneally injected immediately after the first session. The retention test (i.e., the second session) was carried out 24 hours later.

From patent publication US4766116A, “Diaryl butyric acid derivative and pharmaceutical use thereof” (Suntory Limited, priority 1984, dated 1988) come the findings set out here.

As to `COc1ccc(O)c(C(CCC(=O)N2CCN(C)CC2)c2ccccc2)c1` (stereo not shown) [Example 1, 4-(2-hyddroxy-5-methoxy)phenyl-4-phenyl-1-(4-methyl)piperazinyl-1-oxobutane], the minimal effective dose in experiment [1] is 25 mg/kg; in experiment [2] it was 50 mg/kg; in experiment [3] it was 50 mg/kg; in experiment [4] it was 50 mg/kg; in experiment [7] it was 50 mg/kg. In addition, in experiment [5], the “Antilipid Peroxidation, % inhibition of the rat brain homogenate” value was 95.4%. Moreover, the “inhibition of the formation of the lipid peroxides” value in experiment [6] was “caused inhibition”.
